Assay results taken from patent publication US4816562A, “Novel substrate for plasma kallikrein and a method for measuring biological components using the same” (Nitto Boseki Co., Ltd., priority 1985, dated 1989).
Where “and” joins values, the source holds several entries; their conditions need not be identical. Identical values can stand only once. Where a SMILES comes first, the peptide text is derived from it. [ ]: non-standard residue; d: D form. The star is where a group is joined. pNA = O=[N+]([O-])c1ccc(N*)cc1

Assays:
[1] = molecular target: T1, Glandular kallikrein (HGK) (Homo sapiens, UniProt P06870); assay: Substrate specificity: reaction of chromogenic substrates with glandular kallikrein, absorbance read-out; assay type: biochemical, Human urine; conditions: for Absorbance (O.D.) HGK: S0 = 2.0 mM, 37° C., 5 minutes, pH 9.0; for Relative reactivity with HGK: PS-2203N taken as 100, initial substrate concentration S0 = 2 mM; for Reactivity with glandular kallikrein: relative to Z-D-Orn-Phe-Arg-PNA (PS-2203N) as 100
T1 construct: purchased Green Cross Lot No. 1003SM (catalogue number not given); host or cells: human urine
Procedure: (§1) The specificities of the novel substrates synthesized above were examined by reacting them with various enzymes.
(§2) (1) Substrate solution: 2 mmoles/liter H2 O
(§3) (2) Buffer solution: Concentrations of Tris, NaCl and CaCl2 and pH value of reaction for every enzyme were as follows: […]
(§4) Into a silicone-treated test tube made of hard glass or a plastic were introduced 0.3 ml of a buffer solution and 0.1 ml of an enzyme reagent. After preheating them for 5 minutes in a thermostated bath kept at 37° C., 0.1 ml of substrate solution was added and an enzyme reaction was carried out at 37° C. for 5 minutes. When an exact five minutes had passed, 2.0 ml of the reaction stopper or the reaction-stopping color-forming reagent was added to stop the enzyme reaction, and subsequently the reaction mixture was allowed to stand at 37° C. for 10 minutes. Then, absorbance was measured at 405 nm or 700 nm.

[2] = molecular target: T2, Urokinase (UK) (Homo sapiens, UniProt P00749); assay: Substrate specificity: reaction of chromogenic substrates with urokinase, absorbance read-out; assay type: biochemical; conditions: for Absorbance (O.D.) UK: S0 = 2.0 mM, 37° C., 5 minutes, pH 8.2; for Relative reactivity with UK: PS-2203N taken as 100, initial substrate concentration S0 = 2 mM
T2 construct: purchased Mochida Pharmaceutical Lot No. 2A-139 (catalogue number not given)
Procedure: as §1, §2, §3, §4

[3] = molecular target: T3, Xa factor (FXa) (Bos taurus, UniProt P00743); assay: Substrate specificity: reaction of chromogenic substrates with Xa factor, absorbance read-out; assay type: biochemical, Bovine; conditions: for Absorbance (O.D.) FXa: S0 = 2.0 mM, 37° C., 5 minutes, pH 8.3; for Relative reactivity with FXa: PS-2203N taken as 100, initial substrate concentration S0 = 2 mM; for Reactivity with Xa factor: relative to Z-D-Orn-Phe-Arg-PNA (PS-2203N) as 100
T3 construct: purchased Sigma Lot No. 73F-9450 (catalogue number not given)
Procedure: as §1, §2, §3, §4

[4] = molecular target: T4, Plasmin (PL) (Homo sapiens, UniProt P00747); assay: Substrate specificity: reaction of chromogenic substrates with plasmin, absorbance read-out; assay type: biochemical; conditions: for Absorbance (O.D.) PL: S0 = 2.0 mM, 37° C., 5 minutes, pH 7.8; for Relative reactivity with PL: PS-2203N taken as 100, initial substrate concentration S0 = 2 mM; for Reactivity with plasmin: relative to Z-D-Orn-Phe-Arg-PNA (PS-2203N) as 100
T4 construct: purchased Green Cross Lot No. PL-35 (catalogue number not given)
Procedure: as §1, §2, §3, §4

[5] = molecular target: T5, Thrombin (TH) (Bos taurus, UniProt P00735); assay: Substrate specificity: reaction of chromogenic substrates with thrombin, absorbance read-out; assay type: biochemical, Bovine; conditions: for Absorbance (O.D.) TH: S0 = 2.0 mM, 37° C., 5 minutes, pH 8.5; for Relative reactivity with TH: PS-2203N taken as 100, initial substrate concentration S0 = 2 mM; for Reactivity with thrombin: relative to Z-D-Orn-Phe-Arg-PNA (PS-2203N) as 100
T5 construct: purchased Mochida Pharmaceutical Lot No. 65146 (catalogue number not given)
Procedure: as §1, §2, §3, §4

[6] = molecular target: T6, Plasma kallikrein (HPK) (Homo sapiens, UniProt P03952); assay: Substrate specificity: reaction of chromogenic substrates with plasma kallikrein, absorbance read-out; assay type: biochemical; conditions: for Absorbance (O.D.) HPK: S0 = 2.0 mM, 37° C., 5 minutes, pH 9.0; for Relative reactivity with HPK: PS-2203N taken as 100, initial substrate concentration S0 = 2 mM
T6 construct: purchased AB Kabi Diagnostica Lot No. 3740152 (catalogue number not given)
Procedure: as §1, §2, §3, §4

[7] = 700 nm (CHA substrates, pentaamine ferroate)

T6 sequence (P03952 391-638 limits assumed): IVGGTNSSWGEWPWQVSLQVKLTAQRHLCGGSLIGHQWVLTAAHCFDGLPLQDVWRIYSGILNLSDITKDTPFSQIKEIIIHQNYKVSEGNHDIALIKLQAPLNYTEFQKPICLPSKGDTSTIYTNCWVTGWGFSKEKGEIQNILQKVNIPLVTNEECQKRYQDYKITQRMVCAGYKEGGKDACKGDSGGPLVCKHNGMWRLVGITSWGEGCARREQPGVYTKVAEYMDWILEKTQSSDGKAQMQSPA
T6 sequence (P03952 20-390 partner limits assumed): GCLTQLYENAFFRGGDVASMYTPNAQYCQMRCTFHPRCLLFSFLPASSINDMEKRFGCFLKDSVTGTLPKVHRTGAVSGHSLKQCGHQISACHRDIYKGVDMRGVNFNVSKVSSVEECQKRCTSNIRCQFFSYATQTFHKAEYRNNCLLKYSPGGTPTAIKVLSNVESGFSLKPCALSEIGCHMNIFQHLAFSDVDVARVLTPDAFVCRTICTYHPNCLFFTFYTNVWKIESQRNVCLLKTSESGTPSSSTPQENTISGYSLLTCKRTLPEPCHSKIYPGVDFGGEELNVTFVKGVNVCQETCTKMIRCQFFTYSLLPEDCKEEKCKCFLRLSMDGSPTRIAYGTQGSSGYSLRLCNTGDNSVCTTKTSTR
T1 sequence (P06870 25-262): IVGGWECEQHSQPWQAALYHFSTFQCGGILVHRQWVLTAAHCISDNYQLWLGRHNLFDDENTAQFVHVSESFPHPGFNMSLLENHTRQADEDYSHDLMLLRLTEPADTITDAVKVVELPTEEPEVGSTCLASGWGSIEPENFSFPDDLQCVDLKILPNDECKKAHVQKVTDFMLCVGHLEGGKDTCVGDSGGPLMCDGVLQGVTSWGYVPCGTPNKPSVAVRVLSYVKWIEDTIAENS
T4 sequence (P00747 581-810 limits assumed): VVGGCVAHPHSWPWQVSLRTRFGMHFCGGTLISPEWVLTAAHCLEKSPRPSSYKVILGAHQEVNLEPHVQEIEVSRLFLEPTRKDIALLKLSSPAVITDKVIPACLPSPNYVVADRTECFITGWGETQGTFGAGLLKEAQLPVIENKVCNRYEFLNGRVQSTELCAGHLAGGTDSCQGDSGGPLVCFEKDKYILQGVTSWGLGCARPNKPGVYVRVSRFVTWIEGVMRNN
T4 sequence (P00747 97-580 partner limits assumed): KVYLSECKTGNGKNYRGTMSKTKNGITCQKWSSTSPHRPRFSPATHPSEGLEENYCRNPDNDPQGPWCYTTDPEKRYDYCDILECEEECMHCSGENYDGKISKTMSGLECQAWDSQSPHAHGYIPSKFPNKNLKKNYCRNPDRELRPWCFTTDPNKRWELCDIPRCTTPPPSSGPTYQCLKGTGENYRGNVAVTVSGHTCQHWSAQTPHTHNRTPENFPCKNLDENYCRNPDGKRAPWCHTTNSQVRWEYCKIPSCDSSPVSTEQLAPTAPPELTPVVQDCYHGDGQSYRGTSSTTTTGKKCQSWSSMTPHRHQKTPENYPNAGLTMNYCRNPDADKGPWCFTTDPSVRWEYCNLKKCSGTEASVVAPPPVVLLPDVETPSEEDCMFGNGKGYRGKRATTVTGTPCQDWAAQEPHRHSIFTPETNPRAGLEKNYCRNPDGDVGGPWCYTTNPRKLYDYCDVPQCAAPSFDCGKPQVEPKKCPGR
T3 sequence (P00743 234-492 limits assumed): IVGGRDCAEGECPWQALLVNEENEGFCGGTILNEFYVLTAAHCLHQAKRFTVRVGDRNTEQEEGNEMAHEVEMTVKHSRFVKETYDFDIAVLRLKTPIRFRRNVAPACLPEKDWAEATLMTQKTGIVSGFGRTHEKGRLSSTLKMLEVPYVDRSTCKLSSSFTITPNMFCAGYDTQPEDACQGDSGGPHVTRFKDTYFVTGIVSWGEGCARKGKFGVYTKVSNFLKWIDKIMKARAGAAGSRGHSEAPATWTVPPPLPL
T3 sequence (P00743 41-180 partner limits assumed): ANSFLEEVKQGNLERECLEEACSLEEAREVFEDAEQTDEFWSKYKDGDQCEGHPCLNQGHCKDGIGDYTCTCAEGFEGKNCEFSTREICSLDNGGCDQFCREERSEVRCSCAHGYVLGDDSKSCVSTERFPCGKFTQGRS

| Relative reactivity with HGK [1] | Relative reactivity with UK [2] | Relative reactivity with FXa [3] | Relative reactivity with PL [4] | Relative reactivity with TH [5] | Relative reactivity with HPK [6] | Absorbance (O.D.) HGK [1, 7] | Absorbance (O.D.) UK [2, 7] | Absorbance (O.D.) FXa [3, 7] | Absorbance (O.D.) PL [4, 7] | Absorbance (O.D.) TH [5, 7] | Absorbance (O.D.) HPK [6, 7] | Compound | also measured |
| --- | --- | --- | --- | --- | --- | --- | --- | --- | --- | --- | --- | --- | --- |
| 169 | 50 | 169 | 48 | 269 | 131 |  |  |  |  |  |  | N=C(N)NCCC[C@H](NC(=O)[C@H](Cc1ccccc1)NC(=O)[C@H]1CCCN1)C(=O)Nc1ccc([N+](=O)[O-])cc1 [S-2302, H-D-Pro-Phe-Arg-PNA, reference compound] (H-[dP]-Phe-Arg-pNA) | Absorbance (O.D.) HGK ([1]; 405 nm (PNA substrates)): 0.021 O.D.; Reactivity with glandular kallikrein [1]: 169%; Absorbance (O.D.) UK ([2]; 405 nm (PNA substrates)): 0.011 O.D.; Reactivity with urokinase ([2]; relative to Z-D-Orn-Phe-Arg-PNA (PS-2203N) as 100): 50%; Absorbance (O.D.) FXa ([3]; 405 nm (PNA substrates)): 0.389 O.D.; Reactivity with Xa factor [3]: 169%; Absorbance (O.D.) PL ([4]; 405 nm (PNA substrates)): 0.121 O.D.; Reactivity with plasmin [4]: 48%; Absorbance (O.D.) TH ([5]; 405 nm (PNA substrates)): 0.152 O.D.; Reactivity with thrombin [5]: 269%; Absorbance (O.D.) HPK ([6]; 405 nm (PNA substrates)): 0.325 O.D. |
|  |  |  |  |  |  | 0.016 O.D. | 0.0 O.D. | 0.046 O.D. | 0.107 O.D. | 0.010 O.D. | 0.301 O.D. | MOC--D-Lys--Phe--Arg--CHA.2HCl [PS-2204] |  |
|  |  |  |  |  |  | 0.010 O.D. | 0.0 O.D. | 0.016 O.D. | 0.094 O.D. | 0.007 O.D. | 0.234 O.D. | SBz--D-Lys--Phe--Arg--CHA.2HCl [PS-2206] |  |
|  |  |  |  |  |  | 0.014 O.D. | 0.0 O.D. | 0.010 O.D. | 0.158 O.D. | 0.015 O.D. | 0.255 O.D. | Tos-D-Lys-Phe-Arg-CHA.2HCl [PS-2205] |  |

The next lines start with the compound.

| Compound | Relative reactivity with HGK [1] | Relative reactivity with UK [2] | Relative reactivity with FXa [3] | Relative reactivity with PL [4] | Relative reactivity with TH [5] | Relative reactivity with HPK [6] | Absorbance (O.D.) HGK [1, 7] | Absorbance (O.D.) UK [2, 7] | Absorbance (O.D.) FXa [3, 7] | Absorbance (O.D.) PL [4, 7] | Absorbance (O.D.) TH [5, 7] | Absorbance (O.D.) HPK [6, 7] | also measured |
| --- | --- | --- | --- | --- | --- | --- | --- | --- | --- | --- | --- | --- | --- |
| Z--D-Lys--Phe--Arg--CHA.2HCl [PS-2200] |  |  |  |  |  |  | 0.010 O.D. | 0.002 O.D. | 0.046 O.D. | 0.094 O.D. | 0.009 O.D. | 0.316 O.D. |  |
| Z-D-Orn-Phe-Arg-CHA [PS-2203] | 15 | 0 | 4 | 14 | 2 | 59 | 0.005 O.D. | 0.0 O.D. | 0.022 O.D. | 0.079 O.D. | 0.007 O.D. | 0.331 O.D. | Reactivity with glandular kallikrein [1]: 15%; Reactivity with Xa factor [3]: 4%; Reactivity with plasmin [4]: 14%; Reactivity with thrombin [5]: 2% |
| Z-D-Orn-Phe-Arg-PNA [PS-2203N, reference compound] | 100 | 100 | 100 | 100 | 100 | 100 |  |  |  |  |  |  | Absorbance (O.D.) HGK ([1]; 405 nm (PNA substrates)): 0.013 O.D.; Absorbance (O.D.) UK ([2]; 405 nm (PNA substrates)): 0.021 O.D.; Absorbance (O.D.) FXa ([3]; 405 nm (PNA substrates)): 0.230 O.D.; Absorbance (O.D.) PL ([4]; 405 nm (PNA substrates)): 0.250 O.D.; Absorbance (O.D.) TH ([5]; 405 nm (PNA substrates)): 0.056 O.D.; Absorbance (O.D.) HPK ([6]; 405 nm (PNA substrates)): 0.250 O.D. and 0.249 O.D. |
| i-BOC--D-Lys--Phe--Arg--CHA.2HCl [PS-2202] |  |  |  |  |  |  | 0.006 O.D. | 0.0 O.D. | 0.040 O.D. | 0.128 O.D. | 0.005 O.D. | 0.245 O.D. |  |
